Experimental data published in patent publication US11083732B2, “Use of negative modulators of GABA receptors containing alpha5 subunits as fast acting antidepressants” (University of Maryland, Baltimore, priority 2014, dated 2021).

Legend:
ΔFosB = experiment: FosB and ΔFosB expression after injection; assay type: in vivo, rat
From the text: D3. Nestler and colleagues have shown that induction of the transcription factor ΔFosB in D1R-expressing medium spiny neurons in the NAc in response to chronic stress is an important mediator of resilience and may play a role in the antidepressant actions of fluoxetine by changing gene expression and synaptic strength (Perrotti et al., 2004; Lobo et al., 2013; Grueter et al., 2013). It is considered whether alpha5 GABA-NAM injection also affects deltaFosB expression. Control and CRS-susceptible rats receive an injection of L-665, 708. […] Tissue punches are taken from the NAc, area CA1, EC, and PFC and subjected to Western blotting for quantification of deltaFosB levels. Sections are prepared from these same regions and stained for ΔFosB in order to count immunoreactive nuclei with stereological techniques (Vialou et al., 2010). Sections through the ventral striatum are co-stained with an antibody against the D1R, since the expression of ΔFosB in these cells may be particularly important for SSRI actions (Lobo et a/., 2013). Similar to fluoxetine, in specific embodiments in stressed and unstressed animals, alpha5 GABA-NAM affects ΔFosB expression in the NAc and other brain regions, consistent with initial studies (FIG. 5).

[1] = tested on: amnestic properties of the anesthetic etomidate; details: 0.7 mg/kg i.p.; Martin et al (2009); cited from earlier work
[2] = tested on: rats subjected to chronic restraint stress; experiment: Sucrose preference test (SPT) after chronic restraint stress (CRS); assay type: in vivo, rat; details: 10 days CRS; L-655,708 0.7 mg/kg i.p.; 24 hrs post-injection; vs pre-stress baseline
From the text: MRK-016 rapidly reverses loss of sucrose preference and social interaction behaviors after chronic restraint stress (FIG. 9). […] This persisted for 7 days despite further stress exposure. and in the same animals after an additional week of CRS and 7 days after the injection of MRK-016.
Chronic restraint stress (CRS). Male Sprague Dawley rats (4-5 weeks-old; Harlan Laboratories) were placed in appropriately sized restraint tubes, highly restricting their movement for periods of four hours in a brightly lit lab, every day for ten days during the light phase of their diurnal cycle (Lim et al., 2012).
Sucrose preference test (SPT). Rats were given a choice between two bottles containing tap water or a 1% sucrose solution (Rygula et al., 2006). Testing was conducted overnight (16 hours), including the full duration of their dark phase. Animals were first trained with both bottles while group-housed. For subsequent tests, including during the baseline period, animals were individually housed. Sucrose preference was calculated as amount of the sucrose solution consumed as a percentage of the total amount of liquid consumed.
Drugs/stats. L-655,708 was purchased from Tocris Bioscience (R&D Systems, Minneapolis, Minn.) and prepared at a concentration of 5 mM in 75% saline/25% DMSO. […] This dose is sufficient to occupy about 70% of forebrain binding sites (Atack et al., 2005)
Several hedonic behaviors in rodents are sensitive to chronic stress and are restored by chronic, but not acute, administration of SSRIs, providing one means to screen for potential antidepressant compounds. First, it was determined whether L-655,708 would rapidly (<24 hrs) restore normal hedonic behavior following chronic restraint stress (Watanabe et al., 1992; Lim et al., 2012), consistent with the rapid antidepressant-like actions of ketamine (Li et al., 2011). Baseline measurements were first made of social interaction and sucrose preference, and then 4-5 week old rats were subjected to ten days of CRS. […]

TA-CA1 synapses = experiment: Acute slice electrophysiology: fEPSPs at TA-CA1 synapses after in vivo injection; design: species or system rat
Protocol: Acute slice electrophysiology. Standard methods were used to prepare 400-μm-thick transverse hippocampal slices. Dissection and recording saline contained: 124 mM NaCl, 3 mM KCl, 1.25 mM NaH2PO4, 1.5 mM MgSO4, 2.5 mM CaCl2, 26 mM NaHCO3, and 10 mM glucose, bubbled with 95% O2/5% CO2. Slices were then transferred to a submersion-type recording chamber and perfused at 0.5 2 ml/min at 20-22° C. Picrotoxin (100 μM) and CGP52432 (2 μM) were included to block GABAA and GABAB receptors, and the CA3 region was removed with a scalpel. Because TA-CA1 synapses are electrotonically remote from CA1 cell somata, extracellular recording of local field excitatory postsynaptic potentials (fEPSPs) was used. Recording pipettes (3-5 MSΩ) contained extracellular saline and were placed in stratum lacunosum-moleculare (SLM) to record TA-CA1 responses. fEPSPs were amplified 1000×, filtered at 3 kHz, and digitized at 10 kHz. Concentric bipolar tungsten electrodes were placed >500 μm from the […] in SLM for TA afferents. Stimuli (100 μs) were delivered at 0.05 Hz.
As in previous work (Kallarackal et al., 2013), Mg2+-free saline was used to produce a robust NMDAR-mediated component of the fEPSP for quantification of AMPAR-mediated synaptic excitation. 3-5 consecutive responses were averaged and fEPSP slope was calculated over a 1-3 ms window. […] For NMDA responses, DNQX (50 μM) was bath applied for 15 min and the slope was calculated over a 3-5 ms window in the rising phase of the response, 5-10 ms after its initiation. […]
The inventors used extracellular electrophysiological recording of fEPSPs at TA-CA1 synapses in SLM of area CA1 in brain slices prepared from unstressed rats, rats subjected to ten days of CRS and given a vehicle injection 24 hrs earlier, and rats subjected to ten days of CRS and given an L-655,708 injection 24 hrs earlier (0.7 mg/kg, i.p.). These were the same rats used for the behavioral analyses in FIG. 6. fEPSPs were recorded in ACSF lacking added Mg2+ so as to unblock NMDA receptors. […]

[3] = slices from rats after 10 days CRS, L-655,708 0.7 mg/kg i.p. 24 hrs earlier

CCOC(=O)c1ncn2c1[C@@H]1CCCN1C(=O)c1cc(OC)ccc1-2 [L-655,708, ethyl (13aS)-7-methoxy-9-oxo-11, 12,13,13 a-terahydro-9H-imidazo[1,5-a]pyrrolo[2,1-c] [1,4]benzodiazepine-1-carboxylate]
expression of FosB and ΔFosB (ΔFosB; 24 hrs after injection): No changes were apparent | expression of FosB and ΔFosB in the NAc (ΔFosB; unstressed animals, one hour after injection): increase | effect on amnestic properties of etomidate [1]: reverse the amnestic properties | sucrose preference [2]: not different from their pre-stress baseline | AMPA:NMDA ratio (TA-CA1 synapses; slices from CRS rats, L-655,708 24 hrs earlier, compared to vehicle-treated CRS animals): significantly higher | AMPAR-mediated signaling at TA-CA1 synapses (slope of AMPAR component of fEPSP) (TA-CA1 synapses; [3]): reversed rapidly | slope of the NMDA component of the fEPSP (TA-CA1 synapses; [3]): no corresponding difference
